Test system: K98450-129-R-PDC complex spheroid growth, percent test/control
Assay: Anticancer human tumor K98450-129-R-PDC patient-derived colon adenocarcinoma cell line growth inhibition [RAS]
Details: for viability, T/C: stronger effect = lower value; active = viability on the fitted dose curve at most 10% of control; inactive = the rest
How it was run: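 Agents were tested in combination matrices in half-log decrements from a top concentration at or near clinical Cmax (10 microM if undetermined). Targets were multi-cell spheroids of tumour lines plus HUVEC and MSC stromal cells.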

[1] = curve of first compound, second compound 0.000949 µM
[2] = curve of first compound, second compound 0.003 µM
[3] = curve of first compound, second compound 0.00949 µM
[4] = curve of first compound, second compound 0.03 µM
[5] = curve of first compound, second compound 0.0949 µM
[6] = curve of first compound, second compound 0.3 µM
[7] = second compound 0.000949 µM, first compound 0.00316 µM
[8] = second compound 0.000949 µM, first compound 0.01 µM
[9] = second compound 0.000949 µM, first compound 0.0316 µM
[10] = second compound 0.000949 µM, first compound 0.1 µM
[11] = second compound 0.000949 µM, first compound 0.316 µM
[12] = second compound 0.000949 µM, first compound 1 µM
[13] = second compound 0.003 µM, first compound 0.00316 µM
[14] = second compound 0.003 µM, first compound 0.01 µM
[15] = second compound 0.003 µM, first compound 0.0316 µM
[16] = second compound 0.003 µM, first compound 0.1 µM
[17] = second compound 0.003 µM, first compound 0.316 µM
[18] = second compound 0.003 µM, first compound 1 µM
[19] = second compound 0.00949 µM, first compound 0.00316 µM
[20] = second compound 0.00949 µM, first compound 0.01 µM
[21] = second compound 0.00949 µM, first compound 0.0316 µM
[22] = second compound 0.00949 µM, first compound 0.1 µM
[23] = second compound 0.00949 µM, first compound 0.316 µM
[24] = second compound 0.00949 µM, first compound 1 µM
[25] = second compound 0.03 µM, first compound 0.00316 µM
[26] = second compound 0.03 µM, first compound 0.01 µM
[27] = second compound 0.03 µM, first compound 0.0316 µM
[28] = second compound 0.03 µM, first compound 0.1 µM
[29] = second compound 0.03 µM, first compound 0.316 µM
[30] = second compound 0.03 µM, first compound 1 µM
[31] = second compound 0.0949 µM, first compound 0.00316 µM
[32] = second compound 0.0949 µM, first compound 0.01 µM
[33] = second compound 0.0949 µM, first compound 0.0316 µM
[34] = second compound 0.0949 µM, first compound 0.1 µM
[35] = second compound 0.0949 µM, first compound 0.316 µM
[36] = second compound 0.0949 µM, first compound 1 µM
[37] = second compound 0.3 µM, first compound 0.00316 µM
[38] = second compound 0.3 µM, first compound 0.01 µM
[39] = second compound 0.3 µM, first compound 0.0316 µM
[40] = second compound 0.3 µM, first compound 0.1 µM
[41] = second compound 0.3 µM, first compound 0.316 µM
[42] = second compound 0.3 µM, first compound 1 µM
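Note: spheroids exposed to agents for seven days before the viability readout.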
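Throughout, for viability, T/C: luminescence used as a proxy for viable cell amount.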

C=CC(=O)N1CCN(c2nc(OCC3CCCN3C)nc3c(F)c(-c4nc(N)cc(C)c4C(F)(F)F)c(Cl)cc23)C(C)C1 (stereo not drawn) + CCn1c(-c2cccnc2C(C)OC)c2c3cc(ccc31)N1CCOC(CC(NC(=O)C(C(C)C)N(C)C(=O)C3(F)CCN(C(=O)C#CC(C)(C)N(C)C)CC3)C(=O)N3CCCC(N3)C(=O)OCC(C)(C)C2)C1
inactive: viability, T/C [7] 81.6% | viability, T/C [8] 69.9% | viability, T/C [9] 63.1% | viability, T/C [10] 55.4% | viability, T/C [11] 46.6% | viability, T/C [12] 36% | viability, T/C [13] 69.4% | viability, T/C [14] 54% | viability, T/C [15] 52.8% | viability, T/C [16] 56.2% | viability, T/C [17] 45.9% | viability, T/C [18] 35.2% | viability, T/C [19] 52.8% | viability, T/C [20] 46.8% | viability, T/C [21] 43.8% | viability, T/C [22] 44.9% | viability, T/C [23] 39.9% | viability, T/C [24] 41.9% | viability, T/C [25] 39.4% | viability, T/C [26] 37.1% | viability, T/C [27] 40.4% | viability, T/C [28] 40.7% | viability, T/C [29] 43.2% | viability, T/C [30] 39.9% | viability, T/C [31] 36.6% | viability, T/C [32] 34.3% | viability, T/C [33] 42.1% | viability, T/C [34] 37.2% | viability, T/C [35] 43.5% | viability, T/C [36] 33.7% | viability, T/C [37] 29.8% | viability, T/C [38] 35.3% | viability, T/C [39] 42.9% | viability, T/C [40] 29% | viability, T/C [41] 36.1% | viability, T/C [42] 38%
< 3.16 nM: IC50 [4] | IC50 [5] | IC50 [6]
179 nM: IC50 [1]
3.58 nM: IC50 [3]
112 nM: IC50 [2]

CC(Nc1ccc2c(c1)OCCn1cc(N3C(=O)OCC3C(F)F)nc1-2)C(N)=O (stereo not drawn) + CCn1c(-c2cccnc2C(C)OC)c2c3cc(ccc31)N1CCOC(CC(NC(=O)C(C(C)C)N(C)C(=O)C3(F)CCN(C(=O)C#CC(C)(C)N(C)C)CC3)C(=O)N3CCCC(N3)C(=O)OCC(C)(C)C2)C1
> 10000 nM: IC50 [1]
829 nM: IC50 [2]
< 31.6 nM: IC50 [3] | IC50 [4] | IC50 [5] | IC50 [6]
inactive: viability, T/C [9] 77.4% | viability, T/C [10] 70.5% | viability, T/C [11] 72.1% | viability, T/C [12] 60.8% | viability, T/C (second compound 0.000949 µM, first compound 3.16 µM) 71.5% | viability, T/C (second compound 0.000949 µM, first compound 10 µM) 51.3% | viability, T/C [15] 57.7% | viability, T/C [16] 60.8% | viability, T/C [17] 51.5% | viability, T/C [18] 45.2% | viability, T/C (second compound 0.003 µM, first compound 3.16 µM) 48.9% | viability, T/C (second compound 0.003 µM, first compound 10 µM) 34.7% | viability, T/C [21] 46.6% | viability, T/C [22] 34.3% | viability, T/C [23] 35.8% | viability, T/C [24] 26.9% | viability, T/C (second compound 0.00949 µM, first compound 3.16 µM) 37.2% | viability, T/C (second compound 0.00949 µM, first compound 10 µM) 23% | viability, T/C [27] 37.9% | viability, T/C [28] 38.6% | viability, T/C [29] 32.4% | viability, T/C [30] 25% | viability, T/C (second compound 0.03 µM, first compound 3.16 µM) 27.3% | viability, T/C (second compound 0.03 µM, first compound 10 µM) 21.8% | viability, T/C [33] 34.4% | viability, T/C [34] 29.4% | viability, T/C [35] 29.9% | viability, T/C [36] 24.2% | viability, T/C (second compound 0.0949 µM, first compound 3.16 µM) 24% | viability, T/C (second compound 0.0949 µM, first compound 10 µM) 19.4% | viability, T/C [39] 34.6% | viability, T/C [40] 27% | viability, T/C [41] 31.1% | viability, T/C [42] 23.6% | viability, T/C (second compound 0.3 µM, first compound 3.16 µM) 27.5% | viability, T/C (second compound 0.3 µM, first compound 10 µM) 18.9%

NC1c2ccccc2OC12CCN(c1cnc3c(N4CCCc5ncccc54)n[nH]c3n1)CC2 (stereo not drawn)
193 nM [middle of 4 runs]: IC50 (curve of compound)
inactive: viability, T/C (compound 0.0316 µM) 90.2% [middle of 4 runs] | viability, T/C (compound 0.1 µM) 67.2% [middle of 4 runs] | viability, T/C (compound 0.316 µM) 39.9% [middle of 4 runs] | viability, T/C (compound 1 µM) 25.4% [middle of 4 runs] | viability, T/C (compound 3.16 µM) 19.4% [middle of 4 runs] | viability, T/C (compound 10 µM) 25% [middle of 4 runs]

C=CC(=O)Nc1cc(Nc2nccc(-c3cn(C)c4ccccc34)n2)c(OC)cc1N(C)CCN(C)C + CCn1c(-c2cccnc2C(C)OC)c2c3cc(ccc31)N1CCOC(CC(NC(=O)C(C(C)C)N(C)C(=O)C3(F)CCN(C(=O)C#CC(C)(C)N(C)C)CC3)C(=O)N3CCCC(N3)C(=O)OCC(C)(C)C2)C1
21.5 nM: IC50 [2]
inactive: viability, T/C [7] 76.9% | viability, T/C [8] 63.9% | viability, T/C [9] 77.4% | viability, T/C [10] 44.5% | viability, T/C [11] 20.1% | viability, T/C [12] 8.96% | viability, T/C [13] 59.5% | viability, T/C [14] 51.5% | viability, T/C [15] 48.8% | viability, T/C [16] 24.4% | viability, T/C [17] 14.3% | viability, T/C [18] 10.2% | viability, T/C [19] 39.2% | viability, T/C [20] 41.6% | viability, T/C [21] 28.4% | viability, T/C [22] 20.9% | viability, T/C [23] 11.1% | viability, T/C [25] 37% | viability, T/C [26] 30.9% | viability, T/C [27] 28.4% | viability, T/C [28] 18.1% | viability, T/C [29] 9.5% | viability, T/C [31] 34% | viability, T/C [32] 32.4% | viability, T/C [33] 26.2% | viability, T/C [34] 16.2% | viability, T/C [35] 11% | viability, T/C [37] 34% | viability, T/C [38] 28.9% | viability, T/C [39] 25.3% | viability, T/C [40] 16.5% | viability, T/C [41] 10.1%
active: viability, T/C [24] 8.95% | viability, T/C [30] 9.54% | viability, T/C [36] 9% | viability, T/C [42] 9.52%
85 nM: IC50 [1]
< 3.16 nM: IC50 [3] | IC50 [4] | IC50 [5] | IC50 [6]

Source: PubChem BioAssay AID2060891 (Molecular Pharmacology Branch, DTP, NCI, 2025)
